{
  "source": "patent US20230414637A1",
  "about": "(priority 2020, published 2023)",
  "key": {"[1]": {"test_system": "SARS-CoV-2 in Calu-3 cells", "conditions": "cited from earlier work"}, "[2]": {"experiment": "Supersaturated solution precipitation of niclosamide: amount in solution", "conditions": "pH 9.5, 3 mM/200 μM"}, "[3]": {"test_system": "SARS-CoV-2 in Vero 6 cells", "conditions": "cited from earlier work"}, "[4]": {"conditions": "[11]; cited from earlier work"}, "[5]": {"conditions": "cited from earlier work"}, "physchem [6]": {"experiment": "physchem", "description": "The pKa is defined as the negative base-10 logarithm of the acid dissociation constant (Ka) of a solution). It is an important parameter to consider here because pKa and pH are equal when half of the acid has dissociated. […] Once the pKa is measured (or estimated) the well-known Henderson-Hasselbalch equation calculates the fractions of each species."}, "SARS-COV-2 syncytia": {"test_system": "SARS-COV-2 syncytia", "conditions": "Braga et al [18]; cited from earlier work"}, "[7]": {"test_system": "human airway epithelial cells", "conditions": "300 uM"}, "[8]": {"experiment": "Equilibrium dissolution of AK Sci niclosamide versus pH (supernatant concentration by UV/Vis at 333 nm)"}, "Vero E6 cells": {"test_system": "Vero E6 cells", "conditions": "cited from earlier work"}, "physchem [9]": {"experiment": "physchem", "conditions": "20 °C, pH 9.5, aqueous buffer, kinetic from dmso stock"}, "in vitro": {"experiment": "in vitro", "conditions": "human"}, "[10]": {"type": "physicochemical", "conditions": "data and pHp theory", "source_text": "pH=pKa+Log10[Nic−ve]/[NicOH] Eqn 1\npHp=pKa+log(S−So)/So Eqn 4\nSo=the molar intrinsic solubility of the undissociated acid (NicOH), and S=the molar concentration of the salt form initially added."}, "physchem [11]": {"experiment": "physchem", "remark": "listed apart in the source"}, "[12]": {"test_system": "human airway epithelial cells", "experiment": "cells", "conditions": "Epithelial cell, read-out: IC50 for cell viability and ATP"}, "[13]": {"test_system": "SARS-CoV-2 in Huh-7 cells", "conditions": "infected liver Huh-7 cells, Mirabelli et al [60]; cited from earlier work"}},
  "note": "Several values for one entry are separate records, joined by “and”; a condition that tells them apart may be missing. Identical values can stand only once. Like-named read-outs stand apart in the source and are kept apart here.",
  "data": [
    {"smiles": "O=C(Nc1ccc([N+](=O)[O-])cc1Cl)c1cc(Cl)ccc1O", "note": "[Niclosamide, 5-Chloro-N-(2-chloro-4-nitrophenyl)-2-hydroxybenzamide]", "values": [
      {"measurement": "IC100 for inhibiting viral replication (estimated from graph)", "setting": "[1]; Calu-3 cells, Ko et al [34]", "value": "2 to 3", "unit": "µM"},
      {"measurement": "IC50", "setting": "[1]; Calu-3 cells, Ko et al [34], read-out: IC50 for viral replication", "value": 0.84, "unit": "µM"},
      {"measurement": "effect on viral replication", "setting": "[1]; respiratory Calu-3 cells, 2.5 uM, Braga et al [18]", "value": "showed inhibition of viral replication"},
      {"measurement": "supersaturation", "setting": "[2]", "value": "~15", "unit": "times"},
      {"measurement": "IC50", "setting": "[3]; Vero 6 cells, Braga et al [18], read-out: IC50 for viral replication", "value": 0.34, "unit": "µM"},
      {"measurement": "concentration to completely prevent viral replication", "setting": "[3]; Vero 6 cells, Brunaugh et al [91], including purported enhancement by lysozyme", "value": 0.4, "unit": "µM"},
      {"measurement": "IC100, complete inhibition of viral replication", "setting": "[3]; Vero 6 cells, Jeon et al [14]", "value": 1, "unit": "µM"},
      {"measurement": "IC50", "setting": "[3]; Vero 6 cells, Jeon et al [14], read-out: IC50 for viral replication", "value": 0.28, "unit": "µM"},
      {"measurement": "IC50", "setting": "[3]; Vero E6 cells, Mostafa et al [29], read-out: IC50 for inhibiting viral replication", "value": 0.16, "unit": "µM"},
      {"measurement": "acute oral toxicity", "setting": "[4]", "value": "> 1000", "unit": "mg/kg"},
      {"measurement": "solubility", "setting": "[5]; pH 6.4", "value": 0.0016, "unit": "mg/mL"},
      {"measurement": "solubility", "setting": "[5]; pH 9.1", "value": 0.11, "unit": "mg/mL"},
      {"measurement": "pKa", "setting": "physchem [6]", "value": 6.52},
      {"measurement": "effect on syncytia in vitro", "setting": "SARS-COV-2 syncytia", "value": "protected against syncytia in vitro"},
      {"measurement": "airway epithelial cells still alive upon washout", "setting": "[7]", "value": 17, "unit": "%"},
      {"measurement": "cell death", "setting": "[7]; 6 hr", "value": 83, "unit": "%"},
      {"measurement": "amount of niclosamide in solution", "setting": "[8]; pH 6-7 (tap water, saliva)", "value": "~2", "unit": "µM"},
      {"measurement": "conversion of added powder at high pH", "setting": "[8]; pH 9.7, 10.0 and 10.45 carbonate-bicarbonate buffer, 1 hr stirring", "value": "converted to red crystalline micro-crystals"},
      {"measurement": "CC50", "setting": "Vero E6 cells", "value": 205, "unit": "µM"},
      {"measurement": "concentration to which host cell viability extended", "setting": "Vero E6 cells", "value": "> 100", "unit": "µM"},
      {"measurement": "solubility kinetic", "setting": "physchem [9]", "value": 3000, "unit": "µM"},
      {"measurement": "viability at 300 uM", "setting": "in vitro", "value": 30, "unit": "%"},
      {"measurement": "factor of increase of fitted logarithmic dissolution rate", "setting": "over pH range 8.62 to 9.44, nominal 0.5 mM-1 mM", "value": "over 3 ×"},
      {"measurement": "fitted logarithmic dissolution rate, factor of ln(x)", "setting": "pH 9.44 buffer, more optimized (standardized) stirring", "value": 94},
      {"measurement": "pH at which a 30 uM niclosamide solution can be made", "setting": "[10]", "value": 8.16},
      {"measurement": "pH at which a 50 uM niclosamide solution can be made", "setting": "[10]", "value": 8.39},
      {"measurement": "pH at which a 200 uM niclosamide solution can be made", "setting": "[10]", "value": "9.01 and 8.92"},
      {"measurement": "pH at which a 300 uM niclosamide solution can be made", "setting": "[10]", "value": "9.19 and 9.10"},
      {"measurement": "pH at which a 20 uM niclosamide solution can be made", "setting": "[10]; pKa 7.12, So 2.53 uM", "value": "7.96 and 7.98"},
      {"measurement": "solubility", "setting": "physchem [11]; pH 6.4, aqueous buffer", "value": 4.89, "unit": "µM"},
      {"measurement": "solubility", "setting": "physchem [11]; pH 9.1, aqueous buffer", "value": 336, "unit": "µM"},
      {"measurement": "IC50", "setting": "[12]", "value": "20 to 30", "unit": "µM"},
      {"measurement": "IC50", "setting": "[13]", "value": 0.14, "unit": "µM"}
    ]}
  ]
}
